Results taken from US8921412B2, “C-aryl ansa SGLT2 inhibitors” (Green Cross Corporation, priority 2011, dated 2014).
Like-named read-outs stand apart in the source and are kept apart here.

Tests used:
human SGLT2 = human SGLT2 (Homo sapiens (Human), UniProt P31639); test: Inhibitory effects on human SGLT2 activities (14C-AMG uptake in CHO cells expressing hSGLT2); type: cell-based; conditions: CHO cells stably expressing hSGLT2, 37° C., 2 h
Protocol: Human SGLT2 (hSGLT2) gene was amplified by PCR from cDNA-Human Adult Normal Tissue Kidney (Invitrogen). The hSGLT2 sequence was cloned into pcDNA3.1(+) for mammalian expression and were stably transfected into chinese hamster ovary (CHO) cells. SGLT2-expressing clones were selected based on resistance to G418 antibiotic (Geneticin) and activity in the ^14C-α-methyl-D-glucopyranoside (^14C-AMG) uptake assay.
For sodium-dependent glucose transport assay, cells expressing hSGLT2 were seeded into a 96-well culture plate at a density of 5×10^4 cells/well in RPMI medium 1640 containing 10% fetal bovine serum. The cells were used 1 day after plating. They were incubated in pretreatment buffer (10 mM HEPES, 5 mM Tris, 140 mM choline chloride, 2 mM KCl, 1 mM CaCl2, and 1 mM MgCl2, pH 7.4) at 37° C. for 10 min. They were then incubated in uptake buffer (10 mM HEPES, 5 mM Tris, 140 mM NaCl, 2 mM KCl, 1 mM CaCl2, 1 mM MgCl2, and 1 mM ^14C-nonlabeled AMG pH 7.4) containing ^14C-labeled AMG (8 μM) and the inventive compound or dimethyl sulfoxide (DMSO) vehicle at 37° C. for 2 h. Cells were washed twice with washing buffer (pretreatment buffer containing 10 mM AMG at room temperature) and then the radioactivity was measured using a liquid scintillation counter. IC50 was determined by nonlinear regression analysis using GraphPad PRISM [Katsuno, K. et al. J. Pharmacol. Exp. Ther. 2007, 320, 323-330; Han, S. et al. Diabetes, 2008, 57, 1723-1729].

[1] = not given; remark: listed apart in the source

human SGLT2, sequence (P31639 whole entry): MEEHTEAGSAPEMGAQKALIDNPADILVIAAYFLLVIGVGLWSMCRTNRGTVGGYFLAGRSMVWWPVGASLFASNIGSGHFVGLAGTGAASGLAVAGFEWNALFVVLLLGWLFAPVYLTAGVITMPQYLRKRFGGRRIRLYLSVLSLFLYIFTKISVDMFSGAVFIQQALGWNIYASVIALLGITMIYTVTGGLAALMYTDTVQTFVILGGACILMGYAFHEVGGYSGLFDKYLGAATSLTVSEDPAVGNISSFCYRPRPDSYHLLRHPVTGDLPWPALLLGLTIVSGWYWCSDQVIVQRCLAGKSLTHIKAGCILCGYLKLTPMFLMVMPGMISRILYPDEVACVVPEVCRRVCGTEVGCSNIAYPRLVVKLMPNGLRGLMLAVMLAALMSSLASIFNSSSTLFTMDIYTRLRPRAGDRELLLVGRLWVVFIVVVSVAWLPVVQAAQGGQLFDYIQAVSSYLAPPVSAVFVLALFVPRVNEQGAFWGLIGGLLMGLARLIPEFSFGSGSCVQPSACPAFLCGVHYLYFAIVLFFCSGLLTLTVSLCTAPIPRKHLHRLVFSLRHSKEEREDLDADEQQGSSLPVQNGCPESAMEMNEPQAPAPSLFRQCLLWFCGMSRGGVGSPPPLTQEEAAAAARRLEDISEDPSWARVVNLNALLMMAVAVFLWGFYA

Row | Compound | IC50 (human SGLT2) [nM] | further results
1 | CCOc1ccc(Cc2cc3c(cc2Cl)OCCCCOC[C@H]2O[C@@H]3[C@H](O)[C@@H](O)[C@@H]2O)cc1 [Example 2, (8R,9S,10R,11R,12S)-15-Chloro-14-(4-ethoxybenzyl)-2,3,4,5,7,8,9,10,11,12-decahydro-2H-8,12-epoxybenzo[g][1,6]dioxacyclotetradecine-9,10,11-triol] | 2.27 | –
2 | CCOc1ccc(Cc2cc3c(cc2Cl)OCCCCCCOC[C@H]2O[C@@H]3[C@H](O)[C@@H](O)[C@@H]2O)cc1 [Example 6, (10R,11S,12R,13R,14S)-17-Chloro-16-(4-ethoxybenzyl)-2,3,4,5,6,7,9,10,11,12,13,14-dodecahydro-10,14-epoxybenzo[i][1,8]dioxacyclohexadecine-11,12,13-triol] | 3.63 | –
3 | O[C@@H]1[C@@H](O)[C@H]2O[C@H](COCCCCCOc3cc(Cl)c(Cc4ccc5c(c4)OCCO5)cc32)[C@H]1O [Example 14, (9R,10S,11R,12R,13S)-16-Chloro-15-((2,3-dihydrobenzo[b][1,4]dioxin-6-yl)-methyl)-3,4,5,6,8,9,10,11,12,13-decahydro-2H-9,13-epoxybenzo[h][1,7]dioxacyclopentadecine-10,11,12-triol] | 1.38 | –
4 | CCOc1ccc(Cc2cc3c(cc2Cl)OC[C@H]2C[C@H]2COC[C@H]2O[C@@H]3[C@H](OCc3ccccc3)[C@@H](OCc3ccccc3)[C@@H]2OCc2ccccc2)cc1 | – | ring closure, isolated yield (from CCOc1ccc(Cc2cc([C@@H]3O[C@H](CO)[C@@H](OCc4ccccc4)[C@H](OCc4ccccc4)[C@H]3OCc3ccccc3)c(OC[C@H]3C[C@H]3CI)cc2Cl)cc1, ether bond, 12-membered ring, NaH, DMF, 47.0 mM, 25.0 °C): 63%; ring closure, yield of all isomers ([1]; from CCOc1ccc(Cc2cc([C@@H]3O[C@H](CO)[C@@H](OCc4ccccc4)[C@H](OCc4ccccc4)[C@H]3OCc3ccccc3)c(OC[C@H]3C[C@H]3CI)cc2Cl)cc1, ether bond, sodium hydride, N,N-dimethylformamide, 47.0 mM, 25.0 °C, 3.0 h): 63%
5 | CCOc1ccc(Cc2cc3c(cc2Cl)OC[C@@H]2C[C@@H]2COC[C@H]2O[C@@H]3[C@H](O)[C@@H](O)[C@@H]2O)cc1 [Example 16, (4R,5S,6R,7R,8S)-11-Chloro-10-(4-ethoxybenzyl)-(1aS,14aR)-1a,2,4,5,6,7,8,9,10-octahydro-1H-4,8-epoxybenzo[g]cyclopropa[c][1,6]dioxacyclotetradecine-5,6,7-triol] | 14 | –
6 | CCOc1ccc(Cc2cc3c(cc2Cl)OCCCCCOC[C@H]2O[C@@H]3[C@H](O)[C@@H](O)[C@@H]2O)cc1 [Example 3, (9R,10S,11R,12R,13S)-16-Chloro-15-(4-ethoxybenzyl)-3,4,5,6,8,9,10,11,12,13-decahydro-2H-9,13-epoxybenzo[h][1,7]dioxacyclopentadecine-10,11,12-triol] | 0.899 | –
7 | CSc1ccc(Cc2cc3c(cc2Cl)OCCCCCOC[C@H]2O[C@@H]3[C@H](O)[C@@H](O)[C@@H]2O)cc1 [Example 12, (9R,10S,11R,12R,13S)-16-Chloro-15-(4-(methylthio)benzyl)-3,4,5,6,8,9,10,11,12,13-decahydro-2H-9,13-epoxybenzo[h][1,7]dioxacyclopentadecine-10,11,12-triol] | 0.778 | –
8 | CCOc1ccc(Cc2cc3c(cc2Cl)OCCCCCOC[C@H]2O[C@@H]3[C@H](OCc3ccccc3)[C@@H](OCc3ccccc3)[C@@H]2OCc2ccccc2)cc1 | – | ring closure, isolated yield (from CCOc1ccc(Cc2cc([C@@H]3O[C@H](COCCCCCI)[C@@H](OCc4ccccc4)[C@H](OCc4ccccc4)[C@H]3OCc3ccccc3)c(O)cc2Cl)cc1, ether bond, 13-membered ring, K2CO3/18-crown-6, toluene, 10.0 mM, 25.0 °C): 64%; ring closure, yield of all isomers ([1]; from CCOc1ccc(Cc2cc([C@@H]3O[C@H](COCCCCCI)[C@@H](OCc4ccccc4)[C@H](OCc4ccccc4)[C@H]3OCc3ccccc3)c(O)cc2Cl)cc1, ether bond, potassium carbonate / 18-crown-6, toluene, 10.0 mM, 25.0 °C, 16.0 h): 64%
9 | CSc1ccc(Cc2cc3c(cc2Cl)OCCCCOC[C@H]2O[C@@H]3[C@H](O)[C@@H](O)[C@@H]2O)cc1 [Example 11, (8R,9S,10R,11R,12S)-15-Chloro-14-(4-(methylthio)benzyl)-2,3,4,5,7,8,9,10,11,12-decahydro-8,12-epoxybenzo[g][1,6]dioxacyclotetradecine-9,10,11-triol] | 1.35 | –
10 | CCc1ccc(Cc2cc3c(cc2Cl)OCCCCCCOC[C@H]2O[C@@H]3[C@H](O)[C@@H](O)[C@@H]2O)cc1 [Example 10, (10R,11S,12R,13R,14S)-17-Chloro-16-(4-ethylbenzyl)-2,3,4,5,6,7,9,10,11,12,13,14-dodecahydro-10,14-epoxybenzo[i][1,8]dioxacyclohexadecine-11,12,13-triol] | 1.4 | –
11 | CCOc1ccc(Cc2cc3c(cc2Cl)OC[C@H]2C[C@H]2COC[C@H]2O[C@@H]3[C@H](O)[C@@H](O)[C@@H]2O)cc1 [Example 15, (4R,5S,6R,7R,8S)-11-Chloro-10-(4-ethoxybenzyl)-(1aR,14aS)-1a,2,4,5,6,7,8,9,10-octahydro-1H-4,8-epoxybenzo[g]cyclopropa[c][1,6]dioxacyclotetradecine-5,6,7-triol] | 2.3 | –
12 | CCc1ccc(Cc2cc3c(cc2Cl)OCCCCOC[C@H]2O[C@@H]3[C@H](O)[C@@H](O)[C@@H]2O)cc1 [Example 8, (8R,9S,10R,11R,12S)-15-Chloro-14-(4-ethylbenzyl)-2,3,4,5,7,8,9,10,11,12-decahydro-8,12-epoxybenzo[g][1,6]dioxacyclotetradecine-9,10,11-triol] | 1.4 | –
13 | CCOc1ccc(Cc2cc3c(cc2Cl)OCC=CCOC[C@H]2O[C@@H]3[C@H](OCc3ccccc3)[C@@H](OCc3ccccc3)[C@@H]2OCc2ccccc2)cc1 | – | ring closure, isolated yield (from C=CCOC[C@H]1O[C@@H](c2cc(Cc3ccc(OCC)cc3)c(Cl)cc2OCC=C)[C@H](OCc2ccccc2)[C@@H](OCc2ccccc2)[C@@H]1OCc1ccccc1, rcm bond, 12-membered ring, Grubbs II (11 mol%), DCM, 9.6 mM, 60.0 °C): 26%; ring closure, yield of all isomers ([1]; from C=CCOC[C@H]1O[C@@H](c2cc(Cc3ccc(OCC)cc3)c(Cl)cc2OCC=C)[C@H](OCc2ccccc2)[C@@H](OCc2ccccc2)[C@@H]1OCc1ccccc1, rcm bond, Grubbs 2nd generation catalyst, dichloromethane, 9.6 mM, 60.0 °C, 16.0 h): 26%
14 | CCOc1ccc(Cc2cc3c(cc2Cl)OC/C=C\COC[C@H]2O[C@@H]3[C@H](O)[C@@H](O)[C@@H]2O)cc1 [Example 1, (8R,9S,10R,11R,12S)-15-Chloro-14-(4-ethoxybenzyl)-2,5,7,8,9,10,11,12-octahydro-2H-8,12-epoxybenzo[g][1,6]dioxacyclotetradecine-9,10,11-triol] | 0.974 | –
15 | CCc1ccc(Cc2cc3c(cc2Cl)OCCCCCOC[C@H]2O[C@@H]3[C@H](O)[C@@H](O)[C@@H]2O)cc1 [Example 9, (9R,10S,11R,12R,13S)-16-Chloro-15-(4-ethylbenzyl)-3,4,5,6,8,9,10,11,12,13-decahydro-2H-9,13-epoxybenzo[h][1,7]dioxacyclopentadecine-10,11,12-triol] | 1.38 | –
16 | CCOc1ccc(Cc2cc3c(cc2Cl)OCC=CCOC[C@H]2O[C@@H]3[C@H](OC(C)=O)[C@@H](OC(C)=O)[C@@H]2OC(C)=O)cc1 | – | ring closure, isolated yield (from C=CCOC[C@H]1O[C@@H](c2cc(Cc3ccc(OCC)cc3)c(Cl)cc2OCC=C)[C@H](OC(C)=O)[C@@H](OC(C)=O)[C@@H]1OC(C)=O, rcm bond, 12-membered ring, Grubbs II (20 mol%), DCM, 5.0 mM, 60.0 °C): 23%; ring closure, yield of all isomers ([1]; from C=CCOC[C@H]1O[C@@H](c2cc(Cc3ccc(OCC)cc3)c(Cl)cc2OCC=C)[C@H](OC(C)=O)[C@@H](OC(C)=O)[C@@H]1OC(C)=O, rcm bond, Grubbs 2nd generation catalyst, dichloromethane, 5.0 mM, 60.0 °C, 72.0 h): 23%
17 | O[C@@H]1[C@@H](O)[C@H]2O[C@H](COCCCCOc3cc(Cl)c(Cc4ccc5c(c4)OCCO5)cc32)[C@H]1O [Example 13, (8R,9S,10R,11R,12S)-15-Chloro-14-((2,3-dihydrobenzo[b][1,4]dioxin-6-yl)-methyl)-2,3,4,5,7,8,9,10,11,12-decahydro-8,12-epoxybenzo[g][1,6]dioxacyclotetradecine-9,10,11-triol] | 3.65 | –
